# Experimental data as given in US20060281791A1, “Methods of increasing proliferation of adult mammalian cardiomyocytes through p38 map kinase inhibition” (CHILDREN'S MEDICAL CENTER CORPORATION, priority 2005, published 2006).
# B1: FGF6 (protein, UniProt P10767 38-208, looked up)
# Fibroblast growth factor 6: SPAGTRANNTLLDSRGWGTLLSRSRAGLAGEIAGVNWESGYLVGIKRQRRLYCNVGIGFHLQVLPDGRISGTHEENPYSLLEISTVERGVVSLFGVRSALFVAMNSKGRLYATPSFQEECKFRETLLPNNYNAYESDLYQGTYIALSKYGRVKRGSKVSPIMTVTHFLPRI
# B2: FGF4 (protein, UniProt P08620 31-206, looked up)
# Fibroblast growth factor 4: APTAPNGTLEAELERRWESLVALSLARLPVAAQPKEAAVQSGAGDYLLGIKRLRRLYCNVGIGFHLQALPDGRIGGAHADTRDSLLELSPVERGVVSIFGVASRFFVAMSSKGKLYGSPFFTDECTFKEILLPNNYNAYESYKYPGMFIALSKNGKTKKGNRVSPTMKVTHFLPRL
# B3: FGF17 (protein, UniProt O60258 23-216, looked up)
# Fibroblast growth factor 17: TQGENHPSPNFNQYVRDQGAMTDQLSRRQIREYQLYSRTSGKHVQVTGRRISATAEDGNKFAKLIVETDTFGSRVRIKGAESEKYICMNKRGKLIGKPSGKSKDCVFTEIVLENNYTAFQNARHEGWFMAFTRQGRPRQASRSRQNQREAHFIKRLYQGQLPFPNHAEKQKQFEFVGSAPTRRTKRTRRPQPLT
# B4: CT-1 (protein, UniProt Q16619 1-201, looked up)
# Cardiotrophin-1: MSRREGSLEDPQTDSSVSLLPHLEAKIRQTHSLAHLLTKYAEQLLQEYVQLQGDPFGLPSFSPPRLPVAGLSAPAPSHAGLPVHERLRLDAAALAALPPLLDAVCRRQAELNPRAPRLLRRLEDAARQARALGAAVEALLAALGAANRGPRAEPPAATASAASATGVFPAKVLGLRVCGLYREWLSRTEGDLGQLLPGGSA
# Key:
# [1] = test system: neonatal (P2) cardiomyocytes; experiment: Induction of DNA synthesis (BrdU incorporation) in neonatal cardiomyocytes; type: cell-based, rat; settings: BrdU labeling period 24 to 72 hours; harvested after 72 hours; optimal concentration of stimulus
# Method: Animal experiments were performed in accordance with guidelines of Children's Hospital, Boston and UCLA. Ventricular cardiomyocytes from fetal (E19), 2-day-old (P2) and adult (250-350 g) Wistar rats (Charles River) were isolated as described with minor modifications (Engel et al. 1999; Engel et al. 2003). After digestion of fetal or neonatal hearts (0.14 mg/ml collagenase II (Invitrogen), 0.55 mg/ml pancreatin (Sigma)) cells were cultured in DMEM/F12 (GIBCO) containing 3 mM Na-pyruvate, 0.2% BSA, 0.1 mM ascorbic acid (Sigma), 0.5% Insulin-Transferrin-Selenium (100×), penicillin (100 U/ml), streptomycin (100 μg/ml), and 2 mM L-glutamine (GIBCO). Adult cardiomyocytes were cultured for 1 day in standard medium (DMEM, 25 mM Hepes, 5 mM taurine, 5 mM creatine, 2 mM L-carnitine (Sigma), 20 U/ml insulin (GIBCO), 0.2% BSA, penicillin (100 U/ml), and streptomycin (100 μg/ml)). Cells were stimulated in culture medium without BSA containing 2 mM L-glutamine. Neonatal and adult cardiomyocytes were initially cultured for 48 h in the presence of 20 μM cytosine β-D-arabinofuranoside (araC, Sigma) and 5% horse serum before stimulation to prevent proliferation of non-myocytes. Adult cardiomyocytes were incubated another 3 days with araC during stimulation. Neonatal cardiomyocytes were stimulated every day with growth factors for BrdU and H3P analyses (FGF1 and NRG-1-1β at 50 ng/ml, IL-1β at 100 ng/ml, R&D Systems, all diluted in 0.1% BSA/PBS). SB203580 and LY294002 (Calbiochem) was added every day. Adult cardiomyocytes were stimulated with fresh medium and SB203580 every 3 days.
# Staining was performed as described (Supplemental Table S3) (Engel et al. 1999; Engel et al. 2003). Immune complexes were detected with ALEXA 350, ALEXA 488 or ALEXA 594-conjugated secondary antibodies (1:200, Molecular Probes). DNA was visualised with DAPI (4′,6′-diamidino-2-phenylindole, 0.5 μg/ml, Sigma). For BrdU, cells were cultured in 30 μM BrdU, incubated after permeabilization for 90 min in 2N HCl/1% triton X-100 and washed 3 times in PBS.
# Eighteen to 40 hearts of 3 different litters were used for quantitative analyses of maximal areas. For immunofluorescence analyses 1,500 fetal or neonatal cardiomyocytes were counted. For adult cardiomyocyte analyses in vitro the following number of cells were counted: 500-2,000 for BrdU or Ki67, 9,000-25,000 for H3P, and 12,000-45,000 for aurora B. For in vivo MKK3bE and p38α knockout experiments 2 different litters were used. We counted 1,500-2,000 cells in each apex, left and right ventricle per heart. For adult experiments we analyzed 2 p38α^Δ/Δ and 2 p38^lox/lox hearts (24 sections each). Statistical significance was determined using Student's t test.
# Several growth factors have a limited capacity to induce DNA synthesis in neonatal cardiomyocytes, including FGF1 (Pasumarthi and Field 2002). We screened 45 extracellular factors at two different concentrations for their ability to induce BrdU incorporation in neonatal (P2) cardiomyocytes. […] We confirmed previous studies showing that FGF1, IL-1β, and NRG-1-β1 are potent growth factors for neonatal cardiomyocytes (Supplemental Table S2) (Pasumarthi and Field 2002 Circ Res 90: 1044-54).
# Inhibition of p38 activity by SB203580 increased BrdU incorporation 2.8-fold in neonatal cardiomyocytes stimulated with FGF1 (p<0.01). Similar results were obtained after stimulation with IL-1β and NRG-1-β1. Thus, inhibition of p38 activity augments growth factor-mediated DNA synthesis in neonatal cardiomyocytes.
# [2] = test system: myocardial infarction in adult rats; experiment: Fractional shortening (echocardiography) after myocardial infarction; type: in vivo, rat
# Method: The p38 inhibitors were tested for in vivo effect following myocardial infarct. For the evaluation of left ventricular function, transthoracic echocardiogram can be performed on the rats after myocardial infarction 1 day or 14 days right. Rats can be anesthetized with 4-5% isoflurane in an induction chamber. The chest can be shaved, and the rats can be placed in dorsal decubitus position and intubated for continuous ventilation. 1-2% isoflurane can be continuously supplied via a mask. 3 electrodes can be adhered to their paws to record the electrocardiographic tracing simultaneously with the cardiac image identifying the phase of a cardiac cycle.
# Echocardiograms can be performed with a commercially available echocardiography system equipped with 7.5 MHz phased-array transducer (Philips-Hewlett-Packard). The transducer can be positioned on the left anterior side of the chest. Longitudinal images of the heart can be obtained, including the left ventricle, atrium, the mitral valve and the aorta, followed by the cross-sectional images from the plane of the base to the left ventricular apical region. M-mode tracings can be obtained at the level below the tip of the mitral valve leaflets at the level of the papillary muscles. Fractional shorting (FS) can be calculated as a measure of systolic function, according to the M-mode tracing from the cross-sectional view: maximal LV end-diastolic diameter (at the time of maximal cavity dimension), minimal LV end-systolic diameter (at the time of maximum anterior motion of the posterior wall), FS (%)={(LVEDD−LVESD)/LVEDD}×100.
# To determine whether p38 inhibition/FGF1 stimulation can induce cardiomyocyte proliferation in vivo and whether it has a positive effect on cardiac function after cardiac injury we created myocardial infarctions (MI) in adult rats (250 g) by coronary artery ligation. The p38 inhibitor SB203580 HCl or its vehicle, saline, were injected intraperitoneal every three days for the first month of the study. FGF1 or its carrier BSA was injected mixed with self-assembling peptides once into the infarct border zone immediately after coronary artery ligation. We injecting a total of 80 μl of 400 ng/ml FGF1, given at 3 different injection sites, into 400 mg of infarcted myocardium estimated to deliver a FGF 1 concentration to the cardiomyocytes of approximately 50 to 100 ng/ml. Animals were analyzed 24 hours, 2 weeks, and 3 month after surgery. We performed two blinded and randomized studies using 62 rats for the 2 week and 61 rats for the 3 month experiment, with at least 10 animals in each experimental group. Animals were treated with saline plus BSA (control), SB203580 HCl plus BSA (p38i), saline plus FGF1 (FGF1), or SB203580 HCl plus FGF1 (p38i/FGF1).
# Animal experiments were performed in accordance with guidelines of Children's Hospital in Boston and were approved by the Harvard Medical School Standing Committee on Animals. Myocardial infarction (MI) was produced in ˜250 gm male Sprague-Dawley rats (Charles River and Harlan) as described previously (Hsieh et al., 2006). Briefly, rats were anesthetized by pentobarbital and, following tracheal intubation, the hearts were exposed via left thoracotomy. The left coronary artery was identified after pericardiotomy and was ligated by suturing with 6-0 prolene at the location ˜3mm below the left atrial appendix. For the sham operation, suturing was performed without ligation. […]
# [3] = cited from earlier work
# [4] = test system: p38 MAP kinase; settings: cited from earlier work
# [5] = test system: ERK; settings: cited from earlier work
# [6] = test system: JNK; settings: cited from earlier work
# [7] = test system: LPS-stimulated human peripheral blood monocytes; settings: cited from earlier work
Molecule,% of BrdU positive neonatal cardiomyoctes [1] [%],also measured
CNC[C@H](O)c1cccc(O)c1 [PE],23.7 ± 3.1,–
C[S+]([O-])c1ccc(-c2nc(-c3ccc(F)cc3)c(-c3ccncc3)[nH]2)cc1.Cl (stereo not shown) [SB203580 HCl],–,improvement of fractional shortening ([2]; 3 month after infarction): maintained; improvement of fractional shortening ([2]; day 14 after infarction): maintained; water solubility [3]: water insoluble
CCc1nc(-c2ccc(OC)cc2)[nH]c1-c1ccncc1 [SB202474],–,p38 MAP kinase inhibition (in words) [4]: inactive
TGFβ1,17.4 ± 2.2,–
FGF2,22.2 ± 1.8,–
COc1nccc(-c2c(-c3ccc(F)cc3)ncn2[C@H]2CC[C@H](O)CC2)n1 [SB239063],–,selectivity over ERK [5]: > 200 fold; selectivity over JNK [6]: > 200 fold; p38 MAP kinase inhibition (in words) [4]: potent; IL-1 and TNF-β production [7]: inhibits
IL-1β,41.3 ± 3.2,–
B1,47.3 ± 3.3,–
B2,46.5 ± 3.9,–
B3,31.1 ± 1.7,–
B4,11.2 ± 1.1,–
